Experimental data published in patent US12139499B2, “Heteroaryl compounds for treating Huntington's disease” (PTC THERAPEUTICS, INC., priority 2018, dated 2024).

Test system: Endogenous Huntingtin Protein
Test: Endogenous Huntingtin Protein Assay (ELISA-based MSD electrochemiluminescence)
Format: cell-based
Settings: Table 1
Summary of the method: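 Sandwich MSD electrochemiluminescence immunoassay. Capture used MW1 (expanded polyglutamine) or MAB2166 antibody coated at 1 μg/mL overnight at 4 °C. Samples were bound overnight at 4 °C, then a rabbit monoclonal detection antibody and SULFO-TAG anti-rabbit, each at 0.25 μg/mL, were applied for 1 h at room temperature.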

Compound	IC50
CN1C[C@H](F)[C@@H](N(C)c2nc3nnc(-c4ccc(-c5cn[nH]c5)cc4O)cc3s2)C1 [Compound 382, 2-(6-{[(3S,4S)-4-fluoro-1-methylpyrrolidin-3-yl](methyl)amino}[1,3]thiazolo[4,5-c]pyridazin-3-yl)-5-(1H-pyrazol-4-yl)phenol]	100 to 500 nM
CN(c1nc2nnc(-c3ccc(-c4cn[nH]c4)cc3O)cc2s1)C1CCN(C2CC2)CC1 [Compound 383, 2-{6-[(1-cyclopropylpiperidin-4-yl)(methyl)amino][1,3]thiazolo[4,5-c]pyridazin-3-yl}-5-(1H-pyrazol-4-yl)phenol]	≤ 100 nM
CN(c1nc2nnc(-c3ccc(-c4cn[nH]c4)cc3O)cc2s1)C1CCN(CCF)CC1 [Compound 384, 2-(6-{[1-(2-fluoroethyl)piperidin-4-yl](methyl)amino}[1,3]thiazolo[4,5-c]pyridazin-3-yl)-5-(1H-pyrazol-4-yl)phenol]	≤ 100 nM
CN1CC2(C1)CN(c1nc3nnc(-c4ccc(-c5c[nH]nc5F)cc4O)cc3s1)C2 [Compound 385, 5-(3-fluoro-1H-pyrazol-4-yl)-2-[6-(6-methyl-2,6-diazaspiro[3.3]heptan-2-yl)[1,3]thiazolo[4,5-c]pyridazin-3-yl]phenol]	≤ 100 nM
Oc1cc(-c2cn[nH]c2)ccc1-c1cc2sc(N3C[C@H]4CCNC[C@H]43)nc2nn1 [Compound 386, 2-{6-[(1S,6R)-3,8-diazabicyclo[4.2.0]octan-8-yl][1,3]thiazolo[4,5-c]pyridazin-3-yl}-5-(1H-pyrazol-4-yl)phenol]	≤ 100 nM
CN(c1nc2nnc(-c3ccc(-c4c[nH]nc4F)cc3O)cc2s1)C1CCNC1 (stereo not drawn) [Compound 387, 5-(3-fluoro-1H-pyrazol-4-yl)-2-[6-[methyl(pyrrolidin-3-yl)amino][1,3]thiazolo[4,5-c]pyridazin-3-yl}phenol]	≤ 100 nM
CN1CC[C@@H]2CN(c3nc4nnc(-c5ccc(-c6cn[nH]c6)cc5O)cc4s3)[C@@H]2C1 [Compound 388, 2-{6-[(1S,6R)-3-methyl-3,8-diazabicyclo[4.2.0]octan-8-yl][1,3]thiazolo[4,5-c]pyridazin-3-yl}-5-(1H-pyrazol-4-yl)phenol]	100 to 500 nM
Oc1cc(-c2cn[nH]c2)ccc1-c1cc2sc(N3C[C@@H]4CCNC[C@@H]43)nc2nn1 [Compound 389, 2-{6-[(1R,6S)-3,8-diazabicyclo[4.2.0]octan-8-yl][1,3]thiazolo[4,5-c]pyridazin-3-yl}-5-(1H-pyrazol-4-yl)phenol]	≤ 100 nM
CN1CC[C@H]2CN(c3nc4nnc(-c5ccc(-c6cn[nH]c6)cc5O)cc4s3)[C@H]2C1 [Compound 390, 2-{6-[(1R,6S)-3-methyl-3,8-diazabicyclo[4.2.0]octan-8-yl][1,3]thiazolo[4,5-c]pyridazin-3-yl}-5-(1H-pyrazol-4-yl)phenol]	≤ 100 nM
CN1CCC(N(C)c2nc3nnc(-c4ccc(-c5c[nH]nc5F)cc4O)cc3s2)C1 (stereo not drawn) [Compound 391, 5-(3-fluoro-1H-pyrazol-4-yl)-2-{6-[methyl(1-methylpyrrolidin-3-yl)amino][1,3]thiazolo[4,5-c]pyridazin-3-yl]phenol]	≤ 100 nM
CN1CCC2(CC1)CN(c1nc3nnc(-c4ccc(-c5c[nH]nc5F)cc4O)cc3s1)C2 [Compound 392, 5-(3-fluoro-1H-pyrazol-4-yl)-2-[6-(7-methyl-2,7-diazaspiro[3.5]nonan-2-yl)[1,3]thiazolo[4,5-c]pyridazin-3-yl]phenol]	1000 to 3000 nM
CCCN1CCC(N(C)c2nc3nnc(-c4ccc(-c5cn[nH]c5)cc4O)cc3s2)CC1 [Compound 393, 2-{6-[methyl(1-propylpiperidin-4-yl)amino][1,3]thiazolo[4,5-c]pyridazin-3-yl]-5-(1H-pyrazol-4-yl)phenol]	1000 to 3000 nM
C[C@H]1C[C@@H](N(C)c2nc3nnc(-c4ccc(-c5cn[nH]c5)cc4O)cc3s2)CCN1 [Compound 394, 2-(6-{methyl[(2S,4S)-2-methylpiperidin-4-yl]amino}[1,3]thiazolo[4,5-c]pyridazin-3-yl)-5-(1H-pyrazol-4-yl)phenol]	≤ 100 nM
C[C@H]1C[C@@H](N(C)c2nc3nnc(-c4ccc(-c5cn[nH]c5)cc4O)cc3s2)CCN1C [Compound 395, 2-(6-{[(2S,4S)-1,2-dimethylpiperidin-4-yl](methyl)amino}[1,3]thiazolo[4,5-c]pyridazin-3-yl)-5-(1H-pyrazol-4-yl)phenol]	≤ 100 nM
C[C@@H]1C[C@@H](N(C)c2nc3nnc(-c4ccc(-c5cn[nH]c5)cc4O)cc3s2)CCN1 [Compound 396, 2-(6-{methyl[(2R,4S)-2-methylpiperidin-4-yl]amino][1,3]thiazolo[4,5-c]pyridazin-3-yl)-5-(1H-pyrazol-4-yl)phenol]	≤ 100 nM
C[C@@H]1C[C@@H](N(C)c2nc3nnc(-c4ccc(-c5cn[nH]c5)cc4O)cc3s2)CCN1C [Compound 397, 2-(6-{[(2R,4S)-1,2-dimethylpiperidin-4-yl](methyl)amino}[1,3]thiazolo[4,5-c]pyridazin-3-yl)-5-(1H-pyrazol-4-yl)phenol]	≤ 100 nM
CN(c1nc2nnc(-c3ccc(-c4c[nH]nc4F)cc3O)cc2s1)C1CCCNCC1 (stereo not drawn) [Compound 398, 2-{6-[(azepan-4-yl)(methyl)amino][1,3]thiazolo[4,5-c]pyridazin-3-yl)-5-(3-fluoro-1H-pyrazol-4-yl)phenol]	≤ 100 nM
CN(c1nc2nnc(-c3ccc(-c4cn[nH]c4)cc3O)cc2s1)C1CCN(CCO)CC1 [Compound 399, 2-(6-{[1-(2-hydroxyethyl)piperidin-4-yl](methyl)amino}[1,3]thiazolo[4,5-c]pyridazin-3-yl)-5-(1H-pyrazol-4-yl)phenol]	≤ 100 nM
